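How tested: cells in 96-well plates exposed to compound for 48 hours at five concentrations. GI50: concentration for 50% inhibition of growth.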 Calls of active or inactive are those of the source. No stated cut-off is given here; in the data, active = GI50 up to about 1.1 µM and inactive = higher.
How the values were obtained:
Assay in all cases: NCI tumour cell line growth inhibition, 48 h
SK-MEL-5 = system: SK-MEL-5
IGROV-1 = system: IGROV-1
HCC 2998 = system: HCC 2998
NCI-H522 = system: NCI-H522
UACC-62 = system: UACC-62
M14 = system: M14
EKVX = system: EKVX
MOLT-4 = system: MOLT-4
SF-539 = system: SF-539
Malme-3M = system: Malme-3M
OVCAR-3 = system: OVCAR-3
HCT-15 = system: HCT-15
NCI-H23 = system: NCI-H23
CCRF-CEM = system: CCRF-CEM
SR = system: SR
SN12C = system: SN12C
SF-295 = system: SF-295
HL-60 = system: HL-60
SK-MEL-2 = system: SK-MEL-2

SMILES | GI50 (SK-MEL-5) | GI50 (IGROV-1) | GI50 (HCC 2998) | GI50 (NCI-H522) | GI50 (UACC-62) | GI50 (M14) | GI50 (EKVX) | GI50 (MOLT-4) | GI50 (SF-539) | GI50 (Malme-3M) | GI50 (OVCAR-3) | GI50 (HCT-15) [µM] | GI50 (NCI-H23) | GI50 (CCRF-CEM) | GI50 (SR) | GI50 (SN12C) | GI50 (SF-295) | GI50 (HL-60) | GI50 (SK-MEL-2)
O=C(O)/C=C/c1ccncc1 | > 100 µM (inactive) | > 100 µM (inactive) | > 100 µM (inactive) | > 100 µM (inactive) | > 100 µM (inactive) | > 100 µM (inactive) | > 100 µM (inactive) | > 100 µM (inactive) | > 100 µM (inactive) | > 100 µM (inactive) | > 100 µM (inactive) | 14.5 | > 100 µM (inactive) | > 100 µM (inactive) | > 100 µM (inactive) | > 100 µM (inactive) | > 100 µM (inactive) | > 100 µM (inactive) | > 100 µM (inactive)
CCOC(=O)C1=C(Nc2ccc(Cl)cc2Cl)OC/C1=N\NS(=O)(=O)c1ccc(C)cc1 | > 100 µM (inactive) | > 100 µM (inactive) | > 100 µM (inactive) | > 100 µM (inactive) | 92.9 µM (inactive) | > 100 µM (inactive) | 91.6 µM (inactive) | > 100 µM (inactive) | > 100 µM (inactive) | > 100 µM (inactive) | 41.2 µM (inactive) | > 100 | > 100 µM (inactive) | > 100 µM (inactive) | > 100 µM (inactive) | > 100 µM (inactive) | > 100 µM (inactive) | > 100 µM (inactive) | > 100 µM (inactive)
CS/C(=N\C(=S)N(C)C)N(c1ccccc1)c1nc(N(C)C)s[s+]1 |  | 77.3 µM (inactive) | 11.9 µM (inactive) | 1.47 µM (inactive) | 4.88 µM (inactive) | 4.83 µM (inactive) | 16 µM (inactive) | 3.08 µM (inactive) | 7.67 µM (inactive) | 2.34 µM (inactive) | 10.8 µM (inactive) | 19.8 | 12.4 µM (inactive) | 1.88 µM (inactive) | 3.98 µM (inactive) | 13.1 µM (inactive) | 16.7 µM (inactive) | 1.61 µM (inactive) | 5.52 µM (inactive)
O=C(O)COc1ccccc1C(=O)Nc1ccccc1 | > 100 µM (inactive) | > 100 µM (inactive) |  | > 100 µM (inactive) | > 100 µM (inactive) | > 100 µM (inactive) | > 100 µM (inactive) | > 100 µM (inactive) | > 100 µM (inactive) | > 100 µM (inactive) | > 100 µM (inactive) | > 100 | > 100 µM (inactive) | > 100 µM (inactive) | > 100 µM (inactive) | > 100 µM (inactive) | > 100 µM (inactive) | > 100 µM (inactive) | > 100 µM (inactive)
CC1=C[C@@H]2Cc3occc3C(C)(C)[C@@H]2CC1 | 17.9 µM (inactive) | > 10 µM (inactive) | 21.4 µM (inactive) | 14.7 µM (inactive) | > 10 µM (inactive) | 22.3 µM (inactive) | 18 µM (inactive) | 19.6 µM (inactive) | 23.8 µM (inactive) | 20 µM (inactive) | 17.7 µM (inactive) |  | 24.5 µM (inactive) | 18.3 µM (inactive) | 14.5 µM (inactive) | 15.8 µM (inactive) | 19.5 µM (inactive) | 19.3 µM (inactive) | 10.9 µM (inactive)
N#C/N=C(/N)NCO | > 100 µM (inactive) | > 100 µM (inactive) | > 100 µM (inactive) | > 100 µM (inactive) | > 100 µM (inactive) | > 100 µM (inactive) | > 100 µM (inactive) | > 100 µM (inactive) | > 100 µM (inactive) | > 100 µM (inactive) | > 100 µM (inactive) | > 40 | > 100 µM (inactive) | > 100 µM (inactive) | 9.29 µM (inactive) | > 100 µM (inactive) | > 100 µM (inactive) | > 100 µM (inactive) | > 100 µM (inactive)
COc1ccc2[nH]cc(CCNC(=O)[C@H](Cc3ccccc3)NC(=O)[C@@H](NCC(F)(F)F)C(C)C)c2c1 |  | 21.2 µM (inactive) |  | 16.7 µM (inactive) | 19.1 µM (inactive) | 17.7 µM (inactive) | 17.4 µM (inactive) | 20.4 µM (inactive) | 19 µM (inactive) | 21.6 µM (inactive) | 15.6 µM (inactive) | 21.4 | 25.3 µM (inactive) | 0.809 µM (active) | 36.2 µM (inactive) | 24.5 µM (inactive) | 11.2 µM (inactive) | 20.1 µM (inactive) | 19.4 µM (inactive)
COC(=O)/C(=N/O)C(C(=O)OC)C(=O)C(=O)Nc1c(Cl)cc(C)cc1S(=O)(=O)O (stereo not drawn) | > 100 µM (inactive) | > 100 µM (inactive) | > 100 µM (inactive) | 33.5 µM (inactive) | > 100 µM (inactive) | > 100 µM (inactive) | > 100 µM (inactive) | > 100 µM (inactive) | > 100 µM (inactive) | > 100 µM (inactive) | > 100 µM (inactive) | > 100 | > 100 µM (inactive) | 42.8 µM (inactive) | 20.1 µM (inactive) | > 100 µM (inactive) | > 100 µM (inactive) | > 100 µM (inactive) | > 100 µM (inactive)
C#Cc1c(C)c(/C=C/C(C)=C/C=C/C(C)=C/C(=O)OC)n(C)c1C |  | > 100 µM (inactive) |  | > 100 µM (inactive) | 62.5 µM (inactive) | > 100 µM (inactive) | > 100 µM (inactive) | > 100 µM (inactive) | > 100 µM (inactive) | > 100 µM (inactive) | > 100 µM (inactive) | > 100 | > 100 µM (inactive) | > 100 µM (inactive) | > 100 µM (inactive) |  | > 100 µM (inactive) | > 100 µM (inactive) | > 100 µM (inactive)
CCOC(=O)C1=C(C)N(NC(N)=O)C(C)(O)C12CCOC2=O (stereo not drawn) | > 100 µM (inactive) | > 100 µM (inactive) | > 100 µM (inactive) | > 100 µM (inactive) | > 100 µM (inactive) | > 100 µM (inactive) | > 100 µM (inactive) | > 100 µM (inactive) | > 100 µM (inactive) | > 100 µM (inactive) | > 100 µM (inactive) | > 100 |  |  | > 100 µM (inactive) | > 100 µM (inactive) | > 100 µM (inactive) | > 100 µM (inactive) | > 100 µM (inactive)
NCCSc1nc2ccccc2s1 | 52.7 µM (inactive) | 41.5 µM (inactive) |  | 28.1 µM (inactive) | 31.3 µM (inactive) | 33.7 µM (inactive) | 34.4 µM (inactive) | 34.9 µM (inactive) | 17.3 µM (inactive) | 50.8 µM (inactive) | 38.6 µM (inactive) | 42.9 | 41.7 µM (inactive) | 26.3 µM (inactive) | 25.9 µM (inactive) | 38.7 µM (inactive) | 23.4 µM (inactive) | 73.5 µM (inactive) | 26.1 µM (inactive)
O=C(CC(=O)n1nc(-c2ccccc2)c(/N=N/c2ccc(Cl)cc2)c1-c1ccccc1)Nc1ccc(Cl)cc1 | > 100 µM (inactive) | > 100 µM (inactive) | > 100 µM (inactive) | > 100 µM (inactive) | > 100 µM (inactive) | > 100 µM (inactive) | > 100 µM (inactive) | > 100 µM (inactive) | > 100 µM (inactive) | > 100 µM (inactive) | > 100 µM (inactive) | > 41.7 | > 100 µM (inactive) | > 43.5 µM (inactive) | > 100 µM (inactive) | > 100 µM (inactive) | > 100 µM (inactive) | > 100 µM (inactive) | > 100 µM (inactive)
O=c1nc(-c2ccccc2)scc1-c1ccccc1 | > 100 µM (inactive) | > 100 µM (inactive) |  | 21 µM (inactive) | 35.5 µM (inactive) | > 100 µM (inactive) | > 100 µM (inactive) | > 100 µM (inactive) | > 100 µM (inactive) | > 100 µM (inactive) | > 100 µM (inactive) | > 100 | > 100 µM (inactive) | > 100 µM (inactive) | > 100 µM (inactive) | > 100 µM (inactive) | > 100 µM (inactive) | > 100 µM (inactive) | > 100 µM (inactive)
Cc1ccc(C(=O)Nc2ccc(S(=O)(=O)O)c3cc(S(=O)(=O)O)cc(S(=O)(=O)O)c23)cc1NC(=S)Nc1cc(C(=O)Nc2ccc(S(=O)(=O)O)c3cc(S(=O)(=O)O)cc(S(=O)(=O)O)c23)ccc1C | > 75 µM (inactive) | > 75 µM (inactive) | > 75 µM (inactive) | > 75 µM (inactive) | > 75 µM (inactive) | > 75 µM (inactive) |  | > 75 µM (inactive) |  | > 75 µM (inactive) | > 75 µM (inactive) | > 75 | > 75 µM (inactive) | > 75 µM (inactive) | > 75 µM (inactive) | > 75 µM (inactive) |  | > 75 µM (inactive) | > 75 µM (inactive)
COC(=O)C1CCC[C@H]2C(CO)=C(C)C(=O)[C@@H]12 (stereo partly drawn) | > 100 µM (inactive) | > 100 µM (inactive) | > 100 µM (inactive) | > 100 µM (inactive) | > 100 µM (inactive) | > 100 µM (inactive) | > 100 µM (inactive) | > 100 µM (inactive) | > 100 µM (inactive) | > 100 µM (inactive) |  | > 100 | > 100 µM (inactive) | > 100 µM (inactive) | > 100 µM (inactive) | > 100 µM (inactive) | > 100 µM (inactive) | > 100 µM (inactive) | > 100 µM (inactive)
Cc1cc(O)c2c(c1)C(=O)c1cc(O)cc(O)c1C2=O [EMODIN] | 5.94 µM (inactive) |  | 31.3 µM (inactive) | 27.4 µM (inactive) |  | 21.4 µM (inactive) |  | 31 µM (inactive) |  | 11 µM (inactive) |  | 22.9 | 14.9 µM (inactive) | > 61.8 µM (inactive) | 23.4 µM (inactive) | 20.5 µM (inactive) | 23.3 µM (inactive) | 26.9 µM (inactive) | 33.9 µM (inactive)
